Source: patent US20260109709A1 (MIRATI THERAPEUTICS, INC., priority 2021, published 2026)
Structures can show the parent of a compound that is named as a salt. Where two headings read alike, the source gives them in different places.

What was measured:
PRMT5-MEP50 = biological target: T1, PRMT5-MEP50 (Homo sapiens, UniProt O14744); assay: SPR binding assay (PRMT5.MTA and PRMT5·SAM surfaces); conditions: steady-state fit
T1 construct: biotin (in vivo biotinylated)
Description: In vivo biotinylated PRMT5-MEP50 was diluted to […] in 25 mM Bicine pH 7.6, 100 mM NaCl, 1 mM TCEP, and 0.05% Tween-20 and injected at 5 μl/min flow rate into flow cell 2 (FC2) of a Series S Sensor Chip SA (Cytiva) in a Biacore T200 or in a Biacore 8K plus (Cytiva). SPR screening was performed in MTA running buffer (25 mM Bicine pH 7.6, 100 mM NaCl, 1 mM TCEP, 20 µM MTA, 0.05% Tween-20 and 2% DMSO). The biotinylated PRMT5-MEP50 surface was equilibrated with MTA running buffer for 12 hours prior to the start. […] Subsequently, compound titration was repeated in SAM-running buffer (25 mM Bicine pH 7.6, 100 mM NaCl, 1 mM TCEP, 20 μM SAM, 0.05% Tween-20, and 2% DMSO). […] After double referencing, the steady-state response was extracted for each fragment concentration and was fit to the Langmuir isotherm equation to determine the equilibrium dissociation constant (KD).

PRMT5/MEP50 complex = biological target: T2, PRMT5/MEP50 complex (Homo sapiens, UniProt O14744); assay: PRMT5:MEP50 FlashPlate Assay (histone H4 peptide methylation); type: biochemical; conditions: 40 nM H4 (1-15) peptide, 1 μM SAM
T2 construct: purchased Reaction Biology Corporation
T2 sequence (O14744 2-637 limits assumed): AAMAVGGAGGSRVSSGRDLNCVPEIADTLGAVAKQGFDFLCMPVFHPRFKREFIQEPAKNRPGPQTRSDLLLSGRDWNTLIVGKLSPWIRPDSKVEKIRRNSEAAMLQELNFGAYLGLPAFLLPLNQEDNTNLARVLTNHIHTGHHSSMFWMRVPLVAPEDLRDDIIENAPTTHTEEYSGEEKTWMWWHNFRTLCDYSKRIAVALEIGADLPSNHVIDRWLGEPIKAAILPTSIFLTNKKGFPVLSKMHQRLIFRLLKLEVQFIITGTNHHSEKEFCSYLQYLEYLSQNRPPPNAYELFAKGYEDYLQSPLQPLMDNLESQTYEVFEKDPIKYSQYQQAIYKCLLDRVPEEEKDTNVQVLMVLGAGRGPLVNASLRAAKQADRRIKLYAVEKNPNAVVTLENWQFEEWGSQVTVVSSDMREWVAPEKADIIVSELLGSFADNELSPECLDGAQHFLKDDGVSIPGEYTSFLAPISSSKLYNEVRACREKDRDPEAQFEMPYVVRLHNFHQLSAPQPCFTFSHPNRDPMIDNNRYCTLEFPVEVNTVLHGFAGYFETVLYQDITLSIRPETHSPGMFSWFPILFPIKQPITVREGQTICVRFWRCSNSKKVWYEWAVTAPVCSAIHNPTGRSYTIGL
T2 sequence (Q9BQA1 2-342 partner limits assumed): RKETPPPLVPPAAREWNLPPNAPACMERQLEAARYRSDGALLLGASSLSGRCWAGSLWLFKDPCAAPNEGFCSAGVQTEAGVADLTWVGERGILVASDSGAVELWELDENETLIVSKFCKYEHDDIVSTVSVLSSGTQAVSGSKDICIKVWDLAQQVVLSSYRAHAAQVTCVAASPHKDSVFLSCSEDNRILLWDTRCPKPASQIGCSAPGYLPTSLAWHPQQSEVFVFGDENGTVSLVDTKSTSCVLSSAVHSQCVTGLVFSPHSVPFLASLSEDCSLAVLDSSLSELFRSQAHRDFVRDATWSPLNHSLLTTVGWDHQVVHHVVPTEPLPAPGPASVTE
Description: The PRMT5 inhibitory activity of compounds of the present invention was determined using a PRMT5: MEP50 FlashPlate Assay and a PRMT5: MEP50 HotSpot Assay (Reaction Biology Corporation).
The assay uses purified human, PRMT5 enzyme to convert S-adenosyl-L-[methyl-3H]methionine plus histone H4 L-arginine to S-adenosyl-L-homocysteine plus histone H4 [methyl-3H]-L-arginine. The assay was carried out using Streptavidin-coated FlashPlates (Perkin Elmer), which contained a scintillant embedded in the plastic of the plate. The histone H4 peptide substrate was conjugated with biotin, which binds to the streptavidin-coated well of the plate, placing the H4 peptide in close proximity to the side well and the scintillant. The transfer of the tritiated methyl group from S-adenosyl-L-[methyl-3H]methionine to the bound histone H4 peptide generated a radiolabeled histone H4, which was quantitated by measuring in a scintillation counter to determine the activity of PRMT5 enzyme in the presence and absence of compound. […] Briefly, compounds of the present invention were solubilized in 100% DMSO at a highest concentration of 10 mM. […] Control samples lacking compound, PRMT5/MEP50 complex or various reaction components also were prepared and processed in parallel with compound test samples. SAH was used as a positive control for assay validation. To measure PRMT5 inhibitory activity, 3 nM PRMT5/MEP50 complex (Reaction Biology Corporation) was preincubated with test compound in assay buffer containing 40 nM histone H4 peptide (amino acids 1-15)-Biotin conjugate for 20 min at room temperature. The enzymatic reaction was initiated by adding 1 μM tritiated S-adenosyl methionine (final concentration) and the reaction is allowed to proceed for 20 min. The reaction was stopped and the amount of bound, tritiated H4 peptide in each sample was determined using a scintillation counter.

[1] = PRMT5.MTA surface, MTA running buffer (20 µM MTA), read-out: KD MTA
[2] = PRMT5·SAM surface, SAM running buffer (20 μM SAM), read-out: KD SAM

T1 sequence (O14744 whole entry): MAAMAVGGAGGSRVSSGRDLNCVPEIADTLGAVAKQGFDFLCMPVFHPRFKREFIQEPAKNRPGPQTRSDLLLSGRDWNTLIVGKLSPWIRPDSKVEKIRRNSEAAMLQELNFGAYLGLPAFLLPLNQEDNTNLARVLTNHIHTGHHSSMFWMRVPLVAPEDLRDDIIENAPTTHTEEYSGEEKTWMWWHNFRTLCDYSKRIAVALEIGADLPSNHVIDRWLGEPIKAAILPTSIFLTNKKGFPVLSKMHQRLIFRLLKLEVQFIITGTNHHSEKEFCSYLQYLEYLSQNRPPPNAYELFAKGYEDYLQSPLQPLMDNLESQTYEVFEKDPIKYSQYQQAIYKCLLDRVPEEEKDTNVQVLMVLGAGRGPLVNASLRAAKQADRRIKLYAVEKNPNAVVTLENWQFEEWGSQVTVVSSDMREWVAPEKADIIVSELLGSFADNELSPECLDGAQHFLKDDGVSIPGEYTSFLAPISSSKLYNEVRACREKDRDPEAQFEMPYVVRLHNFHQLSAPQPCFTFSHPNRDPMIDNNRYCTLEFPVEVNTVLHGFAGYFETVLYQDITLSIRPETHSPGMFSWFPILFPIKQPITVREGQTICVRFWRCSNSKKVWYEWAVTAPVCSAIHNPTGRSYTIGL
T1 sequence (Q9BQA1 whole entry partner): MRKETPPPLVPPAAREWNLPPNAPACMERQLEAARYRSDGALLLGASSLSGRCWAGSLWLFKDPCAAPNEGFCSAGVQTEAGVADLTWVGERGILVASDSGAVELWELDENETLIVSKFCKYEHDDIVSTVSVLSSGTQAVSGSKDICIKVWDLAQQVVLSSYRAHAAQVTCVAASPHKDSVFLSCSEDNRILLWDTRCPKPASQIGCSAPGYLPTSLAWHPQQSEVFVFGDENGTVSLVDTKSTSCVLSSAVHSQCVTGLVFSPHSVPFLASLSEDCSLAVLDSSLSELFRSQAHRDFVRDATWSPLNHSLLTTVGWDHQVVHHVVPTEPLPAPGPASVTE

Kd (PRMT5-MEP50; [1]) [µM]	Kd (PRMT5-MEP50; [2]) [µM]	IC50 (PRMT5/MEP50 complex; IC50 + 2 μM MTA, plus 2 μM MTA) [µM]	IC50 (PRMT5/MEP50 complex; absence of MTA, read-out: IC50) [µM]	Compound
49	65.8	> 300	–	Cn1ccc(-c2ccc3c(c2)nc(N)n3C)n1 [Example 1-2, 1-methyl-5-(1-methyl-1H-pyrazol-3-yl)-1H-benzo[d]imidazol-2-amine]
2.45	19.7	> 300	–	Cc1ncc(CNc2cccc3c2nc(N)n3C)n1-c1ccccc1 [Example 1-12, 1-methyl-N4-((2-methyl-1-phenyl-1H-imidazol-5-yl)methyl)-1H-benzo[d]imidazole-2,4-diamine]
74.2	203	> 300	–	Cn1c(N)nc2c(Nc3cnc4c(c3)CCCC4)cccc21 [Example 1-19, 1-methyl-N4-(5,6,7,8-tetrahydroquinolin-3-yl)-1H-benzo[d]imidazole-2,4-diamine]
20.8	–	> 300	–	CC(C)c1nc(Nc2cccc3c2nc(N)n3C)ns1 [Example 1-42, N4-(5-isopropyl-1,2,4-thiadiazol-3-yl)-1-methyl-1H-benzo[d]imidazole-2,4-diamine]
39.1	108	–	–	COc1cccc(CN(C)c2ccc3c(c2)nc(N)n3C)c1 [Example 1-48, N5-(3-methoxybenzyl)-N5,1-dimethyl-1H-benzo[d]imidazole-2,5-diamine]
44.6	187	> 300	–	Cn1cc(-c2ccc3c(c2)nc(N)n3C)cn1 [Example 1-53, 1-methyl-5-(1-methyl-1H-pyrazol-4-yl)-1H-benzo[d]imidazol-2-amine]
24.5	51.9	> 300	–	Cn1nccc1-c1ccc2c(c1)nc(N)n2C [Example 1-56, 1-methyl-5-(1-methyl-1H-pyrazol-5-yl)-1H-benzo[d]imidazol-2-amine]
–	–	> 300	–	Cn1c(N)nc2cc(-c3ccnnc3)ccc21 [Example 1-73, 1-methyl-5-(pyridazin-4-yl)-1H-benzo[d]imidazol-2-amine]
–	–	> 300	–	Cc1nn(C(C)C)cc1Nc1cccc2c1nc(N)n2C [Example 1-74, N4-(1-isopropyl-3-methyl-1H-pyrazol-4-yl)-1-methyl-1H-benzo[d]imidazole-2,4-diamine]
–	–	180	–	Cn1c(N)nc2c(NCc3cn4cccc(F)c4n3)cccc21 [Example 1-75, N4-((8-fluoroimidazo[1,2-a]pyridin-2-yl)methyl)-1-methyl-1H-benzo[d]imidazole-2,4-diamine]
–	–	> 300	–	Cn1c(N)nc2c(Nc3cnccn3)cccc21 [Example 1-76, 1-methyl-N4-(pyrazin-2-yl)-1H-benzo[d]imidazole-2,4-diamine]
–	–	> 300	–	Cn1c(N)nc2c(Nc3ncccn3)cccc21 [Example 1-78, 1-methyl-N4-(pyrimidin-2-yl)-1H-benzo[d]imidazole-2,4-diamine]
–	–	50.7	–	Cn1c(N)nc2cc(Nc3cnccn3)ccc21 [Example 1-82, 1-methyl-N5-(pyrazin-2-yl)-1H-benzo[d]imidazole-2,5-diamine]
0.089	41.8	> 300	–	CN(Cc1nnc2n1CCOC2)c1ccc2c(c1)nc(N)n2C [Example 1-83, N5-((5,6-dihydro-8H-[1,2,4]triazolo[3,4-c][1,4]oxazin-3-yl)methyl)-N5,1-dimethyl-1H-benzo[d]imidazole-2,5-diamine]
0.512	1.67	17.9	> 300	Cn1ncc(-c2cccc3c2nc(N)n3C)c1-c1ccccc1C#N [Example 1-87, 2-(4-(2-amino-1-methyl-1H-benzo[d]imidazol-4-yl)-1-methyl-1H-pyrazol-5-yl)benzonitrile hydrochloride]
–	–	> 300	> 300	Cn1cc(-c2ccc(Cl)c3c2nc(N)n3C)cn1 [Example 2-1, 7-chloro-1-methyl-4-(1-methylpyrazol-4-yl)benzimidazol-2-amine hydrochloride]
–	–	> 300	> 300	CN1C(=O)CCC1c1ccc(Cl)c2c1nc(N)n2C (centres unmarked) [Example 2-5, 5-(2-amino-7-chloro-1-methyl-benzimidazol-4-yl)-1-methyl-pyrrolidin-2-one hydrochloride]
–	–	> 300	> 300	CN1CCOC(Cc2ccc(Cl)c3c2nc(N)n3C)C1 (centres unmarked) [Example 2-6, 7-chloro-1-methyl-4-[(4-methylmorpholin-2-yl)methyl]benzimidazol-2-amine]
–	–	> 300	> 300	Cn1c(N)nc2c(-c3cnoc3)ccc(Cl)c21 [Example 2-7, 7-chloro-4-isoxazol-4-yl-1-methyl-benzimidazol-2-amine]
–	–	> 300	> 300	Cn1c(N)nc2cc(Cc3ccncc3)cc(C#N)c21 [Example 3-4, 2-amino-3-methyl-6-(4-pyridylmethyl)benzimidazole-4-carbonitrile]
–	–	> 300	> 300	Cn1c(N)nc2cc(C(F)(F)c3cccnc3)cc(C#N)c21 [Example 3-17, 2-amino-6-[difluoro (3-pyridyl)methyl]-3-methyl-benzimidazole-4-carbonitrile]
16.3	79.6	–	–	COc1c(Cc2cccnc2)cc(C#N)c2c1nc(N)n2C [Example 3-22, 2-amino-7-methoxy-3-methyl-6-(3-pyridylmethyl)benzimidazole-4-carbonitrile hydrochloride]
–	–	0.43	155	Cn1nnc(CNc2cc(C#N)c3c(c2)nc(N)n3C)c1C(F)F [Example 3-23, 2-amino-5-(((5-(difluoromethyl)-1-methyl-1H-1,2,3-triazol-4-yl)methyl)amino)-1-methyl-1H-benzo[d]imidazole-7-carbonitrile]
–	–	0.73	280	CCn1cnnc1CNc1cc(C#N)c2c(c1)nc(N)n2C [Example 3-24, 2-amino-5-(((4-ethyl-4H-1,2,4-triazol-3-yl)methyl)amino)-1-methyl-1H-benzo[d]imidazole-7-carbonitrile]
–	–	0.006	2.48	CC(=O)N(Cc1cc(C#N)c2c(c1)nc(N)n2C)c1ccc2ccccc2c1C#N [Example 3-25, N-[(2-amino-7-cyano-1-methyl-benzimidazol-5-yl)methyl]-N-(1-cyano-2-naphthyl) acetamide]
16.9	32.5	–	–	Cn1c(N)nc2c(Nc3cnc4c(c3)CCCC4)ccc(C#N)c21 [Example 3-30, 2-amino-1-methyl-4-((5,6,7,8-tetrahydroquinolin-3-yl)amino)-1H-benzo[d]imidazole-7-carbonitrile]
–	–	122	> 300	Cn1c(N)nc2cc(Cc3ccccn3)cc(C(F)F)c21 [Example 4-2, 7-(difluoromethyl)-1-methyl-5-(2-pyridylmethyl)benzimidazol-2-amine]
–	–	> 300	> 300	CCn1c(N)nc2ncccc21 [Example 5-1, 1-ethyl-1H-imidazo[4,5-b]pyridin-2-amine hydrochloride]
–	–	> 300	> 300	Cn1c(N)nc2cc(Oc3cccnc3)cnc21 [Example 5-3, 3-methyl-6-(3-pyridyloxy) imidazo[4,5-b]pyridin-2-amine]
–	–	17.8	198	CCc1cc(-c2cnn(C)c2-c2ccccc2C#N)c2nc(N)n(C)c2c1 [Example 6-3, 2-[4-(2-amino-6-ethyl-1-methyl-benzimidazol-4-yl)-2-methyl-pyrazol-3-yl]benzonitrile hydrochloride]
